From US9510596B2, “Binary pesticidal and fungicidal mixtures” (BAYER CROPSCIENCE AG, priority 2012, dated 2016)

Test system: Phakopsora pachyrhizi
Experiment: Phakopsora test (soybean)/seed treatment
Assay type: in vivo
Conditions: greenhouse, infected leaf area per plant
Experimental: The test is performed under greenhouse conditions.
Soy bean seeds, treated with the active compound or compound combinations, solved in N-methyl-2-pyrrolidon and diluted with water to the desired dosages, were sown in 6*6 cm pots containing 4 cm of a 1:1 mix of steamed field soil and sand.
The plants were grown at 22° C. and 90% relative humidity in a greenhouse chamber. 21 days old plants were inoculated with an aqueous spore suspension of the causal agent of soybean rust (Phakopsora pachyrhizi) and stay for 24 h without light in an incubation cabinet at approximately 24° C. and a relative atmospheric humidity of 95%. The plants remain in the incubation cabinet at approximately 24° C. and a relative atmospheric humidity of approximately 80% and a day/night interval of 12 h.
Assessment consisted of evaluation of infected leaf area per plant. 0% means an efficacy which corresponds to that of the control, while an efficacy of 100% means that no disease is observed.

SMILES: CC1CC(C)(C)c2cccc(NC(=O)c3cn(C)nc3C(F)F)c21 (stereo not drawn) [(I-1), 3-(difluoromethyl)-1-methyl-N-(1,1,3-trimethyl-2,3-dihydro-1H-inden-4-yl)-1H-pyrazole-4-carboxamide]
- Efficacy in % found* (application rate 25 ppm a.i., 0% = control, 100% = no disease): 25%

SMILES: CNC(=O)c1cc(C#N)cc(C)c1NC(=O)c1cc(Br)nn1-c1ncccc1Cl [2.2, Cyantraniliprole, reference compound]
- Efficacy in % found* (application rate 0.5 ppm a.i.): 0%

SMILES: CNC(=O)c1cc(C#N)cc(C)c1NC(=O)c1cc(Cn2nnc(C(F)(F)F)n2)nn1-c1ncccc1Cl [2.5, 1-(3-chloropyridin-2-yl)-N-[4-cyano-2-methyl-6-(methylcarbamoyl)phenyl]-3-{[5-(trifluoromethyl)-2H-tetrazol-2-yl]methyl}-1H-pyrazole-5-carboxamide]
- Efficacy in % found* (application rate 2.5 ppm a.i.): 13%
